From patent US5965088A, “Method for providing rapid disinfection of contact lenses” (priority 1997, dated 1999)
“And” between values parts separate entries of the source, which are not always exact repeats. Identical values can stand only once.

Tests used:
[1] = Ocular irritation screening study in the rabbit (Draize score, soaked soft lenses); type: in vivo; parameters: key to Draize macroscopic ocular score (weighted total): Draize weighted total score; max 110 per eye; details: rabbit, in vivo, topical or ocular; 4 ppm formulation; rabbits; read-out: safety margin relative to initial onset of abnormal ocular health
Method: (§1) A series of formulations were prepared in which the amount of alexidine were, respectively 4 ppm (test 1), 6 ppm (test 2), 8 ppm (test 3), 10 ppm (test 4), 12 ppm (test 5), 15 ppm (test 6), 18 ppm (test 7), 22 ppm (test 8), 27 ppm (test 9), 33 ppm (test 10), 40 ppm (test 11) and 50 ppm (test 12). These test solutions of alexidine were used in soaking J&J Sure Vue® (etafilcon A) lenses (soft lenses) in 2.5 mL of solution for 1 week or more in order to reach maximal alexidine uptake.
(§2) An ocular irritation screening study was conducted in the rabbit to determine the threshold for ocular irritation. Eyes treated with the lenses were compared to a contralateral control eye. Treated lenses were placed on the right eye of rabbits; control lenses were placed on the left eye. Any lenses displaced from the eyes during the lens wear day were reinserted after rinsing with 0.9% sodium chloride USP solution (SC). Eyes were examined with the aid of a direct light source before lens placement, at 50-70 minutes, 7-8 hours, 23-24 hours, and 30-32 hours after placement. Macroscopic observations were recorded in accordance with criteria in the Draize^* score system. The maximum total score is the sum of all scores obtained for the cornea, iris, and conjunctivae. Total maximum score possible is 110 per eye, 80 with respect to the cornea, 10 with respect to the iris, and 20 with respect to the conjunctivae.
(§3) *Draize, J. H., G. Woodward and H. O. Calvery. 1944. Methods for the study of irritation and toxicity of substances applied topically to the skin and mucous membranes. J. Pharmacol. Exp. Ther. 82:377-390.

[2] = test system: rabbit eye (cornea, iris, conjunctivae); assay: as above; type: in vivo; parameters: key to Draize macroscopic ocular score (weighted total): Draize weighted total score; max 110 per eye; details: for Draize macroscopic ocular score (weighted total): right (test) eye
Method: as §1, §2, §3

[3] = test system: Pseudomonas aeruginosa, Staphylococcus aureus, Serratia marcescens, Candida albicans, Fusarium solani; assay: Stand-Alone Procedure, secondary performance criteria (entrance into the regimen test); type: cell-based, bacteria, yeast and mold; details: for 10 minute entrance into the regimen: 10 min; for secondary performance criteria: 4.0 ppm, Example 12
Method: This Example illustrates the microbiocidal efficacy of solutions according to the present invention. The antimicrobial efficacy of each of various compositions for the chemical disinfection of contact lenses was evaluated. Microbial challenge inoculums were prepared using Pseudomonas aeruginosa (ATCC 9027), Staphylococcus aureus (ATCC 6538), Serratia marcescens (ATCC 13880), Candida albicans (ATCC 10231), and Fusarium solani (ATCC 36031). The test organisms were cultured on appropriate agar and the cultures were harvested using sterile DPBST (Dulbecco's Phosphate Buffered Saline plus 0.05% w/v polysorbate 80) or a suitable diluent and transferred to a suitable vessel. Spore suspensions were filtered through sterile glass wool to remove hyphal fragments. Serratia marcescens, as appropriate, was filtered (eg., through a 1.2 μ filter) to clarify the suspension. After harvesting, the suspension was centrifuged at no more than 5000× g for a maximum of 30 minutes at 20-25° C. The supernatant was poured off and resuspended in DPBST or other suitable diluent. The suspension was centrifuged a second time, and resuspended in DPBST or other suitable diluent. All challenge bacterial and fungal cell suspensions were adjusted with DPBST or other suitable diluent to 1×10^7 -10^8 cfu/mL. The appropriate cell concentration may be estimated by measuring the turbidity of the suspension, for example using a spectrophotometer at a preselected wavelength, for example 490 nm. One tube was prepared containing a minimum of 10 mL of test solution per challenge organism. Each tube of the solution to be tested was inoculated with a suspension of the test organism sufficient to provide a final count of 1.0×10^5 -10^6 cfu/mL, the volume of the inoculum not exceeding 1% of the sample volume. Dispersion of the inoculum was ensured by vortexing the sample for at least 15 seconds. The inoculated product was stored at 10-25° C. Aliquots in the amount of 1.0 mL were taken of the inoculated product for determination of viable counts after certain time periods of disinfection. […] The viable count of organisms was determined in appropriate dilutions by preparation of triplicate plates of trypticase soy (TSA) agar for bacteria and Sabouraud dextrose agar (SDA) for mold and yeast. […] The average number of colony forming units was determined on countable plates. […] The microbial reduction was then calculated at the specified time points. […]
The solutions were evaluated based on the performance requirement referred to as the "Stand-Alone Procedure for Disinfecting Products" (hereafter the "stand-alone test") and is based on the Disinfection Efficacy Testing for contact lens care products under the Draft Premarket Notification (510(k)) Guidance Document For Contact Lens Care Products dated Apr. […]

CCCCC(CC)CNC(=N)NC(=N)NCCCCCCNC(=N)NC(=N)NCC(CC)CCCC.Cl.Cl (stereo not shown) [Alexidine.2HCl, 1,1 '-hexamethylenebis(5-(2-ethylhexyl)-biguanide) dihydrochloride]
selectivity ratio [1]: 2.5
safety in disinfecting soft lenses ([2]; 4.0 ppm, based on rabbit studies): very safe for human use in disinfecting soft lenses
Draize macroscopic ocular score (weighted total) ([2]; 4 ppm, 7-8 hours post lens): 2
Draize macroscopic ocular score (weighted total) ([2]; 4 ppm, 23-24 hours post lens): 2
Draize macroscopic ocular score (weighted total) ([2]; 4 ppm, 30-32 hours post lens): 2
Draize macroscopic ocular score (weighted total) ([2]; 4 ppm, 50-70 minutes post lens): 2
Draize macroscopic ocular score (weighted total) ([2]; 6 ppm, 7-8 hours post lens): 2
Draize macroscopic ocular score (weighted total) ([2]; 6 ppm, 23-24 hours post lens): 2
Draize macroscopic ocular score (weighted total) ([2]; 6 ppm, 30-32 hours post lens): 2
Draize macroscopic ocular score (weighted total) ([2]; 6 ppm, 50-70 minutes post lens): 2
Draize macroscopic ocular score (weighted total) ([2]; 8 ppm, 7-8 hours post lens): 2
Draize macroscopic ocular score (weighted total) ([2]; 8 ppm, 23-24 hours post lens): 2
Draize macroscopic ocular score (weighted total) ([2]; 8 ppm, 30-32 hours post lens): 2
Draize macroscopic ocular score (weighted total) ([2]; 8 ppm, 50-70 minutes post lens): 2
Draize macroscopic ocular score (weighted total) ([2]; 10 ppm, 7-8 hours post lens, dihydrochloride): 4 and 2
Draize macroscopic ocular score (weighted total) ([2]; 10 ppm, 50-70 minutes post lens): 2
Draize macroscopic ocular score (weighted total) ([2]; 12 ppm, 7-8 hours post lens): 2
Draize macroscopic ocular score (weighted total) ([2]; 12 ppm, 23-24 hours post lens): 2
Draize macroscopic ocular score (weighted total) ([2]; 12 ppm, 30-32 hours post lens): 2
Draize macroscopic ocular score (weighted total) ([2]; 12 ppm, 50-70 minutes post lens): 2
Draize macroscopic ocular score (weighted total) ([2]; 15 ppm, 7-8 hours post lens): 4
Draize macroscopic ocular score (weighted total) ([2]; 15 ppm, 30-32 hours post lens): 2
Draize macroscopic ocular score (weighted total) ([2]; 15 ppm, 50-70 minutes post lens, dihydrochloride): 2 and 4
Draize macroscopic ocular score (weighted total) ([2]; 18 ppm, 7-8 hours post lens): 6
Draize macroscopic ocular score (weighted total) ([2]; 18 ppm, 23-24 hours post lens): 2
Draize macroscopic ocular score (weighted total) ([2]; 18 ppm, 30-32 hours post lens): 2
Draize macroscopic ocular score (weighted total) ([2]; 18 ppm, 50-70 minutes post lens): 2
Draize macroscopic ocular score (weighted total) ([2]; 22 ppm, 7-8 hours post lens): 11
Draize macroscopic ocular score (weighted total) ([2]; 22 ppm, 23-24 hours post lens): 2
Draize macroscopic ocular score (weighted total) ([2]; 22 ppm, 30-32 hours post lens): 2
Draize macroscopic ocular score (weighted total) ([2]; 22 ppm, 50-70 minutes post lens): 2
Draize macroscopic ocular score (weighted total) ([2]; 27 ppm, 50-70 minutes post lens): 2
conjunctival reaction clearly defined ([2]; lenses soaked in solution): 15 ppm
corneal opacity observed ([2]; lenses soaked in solution): 27 ppm
iridial involvement observed ([2]; lenses soaked in solution): 22 ppm
first signs of increased ocular toxicity (conjunctival reactions) ([2]; lenses soaked, after 7-8 hours of lens wear): 10 ppm
10 minute entrance into the regimen ([3]; 1.0 ppm): does not pass the 10 minute entrance into the regimen
10 minute entrance into the regimen ([3]; 2.0 ppm): passes the 10 minute entrance into the regimen
secondary performance criteria ([3]; soak 2.5 min): failed in all cases
secondary performance criteria ([3]; soak 10 min): met in all cases
